Experimental findings from US20140088114A1, “FUSED BICYCLIC KINASE INHIBITORS” (OSI Pharmaceuticals ,LLC, priority 2011, published 2014) are described below.

The test system of one experiment is MKN45 cells. The experiment can be described thus: MKN45 cell proliferation assay (CellTiter-Glo). Type of experiment: cell-based. As to conditions: Homo sapiens, MKN-45, 72 h; MKN45 cell line, 3 days incubation, at least duplicate experiments; read-out: Prolif. IC50. As for the experimental part:
The effect of inhibitors on the proliferation of MKN45 cells was determined using the following protocol. MKN45 cells were plated in Corning 3917 96-well white tissue culture treated plates in growth medium (RPMI, 10% FCS) at a density of 5000 cells/well in a total volume of 135 μL and incubated at 37° C., 5% CO2, 95% humidity overnight. The following day, one-tenth volume of a 10× concentration of compounds was added to the wells in an 8-point dilution series. The dilution series was composed of an initial 1:5 dilution of a 10 mM stock of compound in DMSO, followed by serial 1:4 dilutions in DMSO, then a 1:20 dilution in growth medium prior to the 1:10 dilution into the cell plate. Final DMSO concentration on the cells was 0.1%, there were control wells treated with both 0.1% DMSO and no DMSO. The typical dilution range is 10 μM to 0.6 nM. Once the compound was added to the cells, plates were incubated for 3 days at 37° C., 5% CO2 at 95% humidity. On the third day, after allowing all cells and reagents to come to room temperature, 25 μL of CellTiter-Glo reagent (Promega #G7573) was added to the wells. Plates were shaken on a platform for 10 minutes prior to reading luminescence for 0.1 seconds. The signal of the control wells was taken as 100% growth and growth inhibition was expressed as percent of control. IC50 values were determined from the percent of control data using a standard four-parameter model.
The IC50 values of exemplary compounds of the present invention determined in a cell proliferation assay using the MKN45 cell line according to the procedures described herein in at least duplicate experiments are abbreviated as follows and are shown in Table 2: A, IC50≦0.03 μM; B, 0.03 μM<IC50≦0.1 μM; C, 0.1 μM<IC50≦1 μM; D, 1 μM<IC50≦3 μM; ND, not determined. The Example # of Table 2 corresponds to the compound example number as illustrated in the Examples section. […]

The target in a further experiment is T1, c-MET (Homo sapiens, UniProt P08581).
T1 construct: endogenous in cells; host or cells: MKN45
Put plainly: MET cell mechanistic assay (MKN45), phosphorylated MET ELISA. Type of experiment: cell-based. Particulars: MKN45 cell line, 4 hours incubation, inhibition of phosphorylated MET, at least duplicate experiments; read-out: MET mech IC50. As to the method:
The cellular activity of the compounds of the present invention against c-MET may be determined by the following procedure. MKN45 cells were plated in Falcon 3072 96-well plates in growth media (RPMI, 10% FBS, 1% L-glutamine) at a density of 5000 cells/well and incubated at 37° C., 5% CO2 overnight. The following day, one-tenth volume of a 10× concentration of compounds was added to the wells in a 6-point dilution series. The dilutions series was composed of an initial 1:5 dilution in DMSO, followed by a 1:10 dilution in growth media, for a final DMSO concentration on cells of 0.5%. Control wells were treated with 0.5% DMSO. The typical range of dilution was 10 μM to 3 nM. Once compound was added to the cells, plates were incubated for 4 hours at 37° C., 5% CO2. Plates were then washed in PBS, and lysed in triton-based lysis buffer. Lysates were transferred to a precoated capture plate made by Biosource (Cat #KHO0281). The phosphorylated MET levels were measured by incubating with a rabbit polyclonal antibody against phosphorylated MET ([pYpYpY1230/1234/1235]) followed by an anti-rabbit antibody conjugated to HRP. Signal was measured on a Wallac Victor plate reader at 450 nm. The DMSO signal of the control wells was defined as 100% and the percent of inhibition of phosphorylated MET was expressed as percent of control. IC50 values were determined from the percent of control data using a standard four-parameter model.
The IC50 values of exemplary compounds of the present invention determined in a MET cell mechanistic assay using the MKN45 cell line according to the procedures described herein in at least duplicate experiments are abbreviated as follows and are shown in Table 1: A, IC50≦0.03 μM; B, 0.03 μM<IC50≦0.1 μM; C, 0.1 μM<IC50≦1 μM; D, 1 μM<IC50≦3 μM; ND, not determined. The Example # of Table 1 corresponds to the compound Example number as illustrated in the Examples section. […]

Molecules are shown by their SMILES. Some results are limits rather than exact numbers.

T1 sequence (P08581 25-1390): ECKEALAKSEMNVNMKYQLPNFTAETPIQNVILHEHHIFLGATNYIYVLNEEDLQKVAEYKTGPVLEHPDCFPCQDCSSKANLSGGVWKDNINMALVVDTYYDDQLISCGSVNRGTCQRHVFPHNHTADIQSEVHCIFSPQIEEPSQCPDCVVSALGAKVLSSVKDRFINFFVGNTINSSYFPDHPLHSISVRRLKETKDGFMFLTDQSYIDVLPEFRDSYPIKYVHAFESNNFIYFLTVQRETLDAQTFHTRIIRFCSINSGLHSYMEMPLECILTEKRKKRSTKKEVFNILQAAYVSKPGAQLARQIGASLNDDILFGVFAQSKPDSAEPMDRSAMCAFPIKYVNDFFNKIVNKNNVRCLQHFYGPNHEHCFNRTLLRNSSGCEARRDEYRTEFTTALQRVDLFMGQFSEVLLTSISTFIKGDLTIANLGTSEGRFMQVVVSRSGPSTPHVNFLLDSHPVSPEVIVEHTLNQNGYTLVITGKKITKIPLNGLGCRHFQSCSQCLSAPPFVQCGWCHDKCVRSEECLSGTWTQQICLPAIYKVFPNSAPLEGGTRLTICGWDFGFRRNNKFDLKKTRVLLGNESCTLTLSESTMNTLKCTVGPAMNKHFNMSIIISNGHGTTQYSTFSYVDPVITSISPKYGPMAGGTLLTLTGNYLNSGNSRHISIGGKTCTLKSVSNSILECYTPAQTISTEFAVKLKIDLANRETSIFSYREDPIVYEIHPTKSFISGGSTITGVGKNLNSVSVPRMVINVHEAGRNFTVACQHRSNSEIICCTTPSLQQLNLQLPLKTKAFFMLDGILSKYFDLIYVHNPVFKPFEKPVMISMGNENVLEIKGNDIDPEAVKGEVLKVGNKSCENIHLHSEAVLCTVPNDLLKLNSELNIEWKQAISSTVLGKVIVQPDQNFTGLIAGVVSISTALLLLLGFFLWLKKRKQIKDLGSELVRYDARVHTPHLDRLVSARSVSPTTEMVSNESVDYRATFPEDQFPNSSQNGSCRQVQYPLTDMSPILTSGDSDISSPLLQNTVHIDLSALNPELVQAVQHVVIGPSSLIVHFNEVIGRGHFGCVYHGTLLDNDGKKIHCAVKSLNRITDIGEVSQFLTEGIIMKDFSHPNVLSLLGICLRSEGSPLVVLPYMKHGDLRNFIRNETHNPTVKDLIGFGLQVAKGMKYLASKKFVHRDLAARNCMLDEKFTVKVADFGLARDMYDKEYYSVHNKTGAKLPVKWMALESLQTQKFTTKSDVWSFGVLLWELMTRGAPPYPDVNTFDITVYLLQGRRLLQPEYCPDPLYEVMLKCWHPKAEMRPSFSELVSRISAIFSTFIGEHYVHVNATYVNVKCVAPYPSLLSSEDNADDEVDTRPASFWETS

Turning to `Cn1cc(-c2cnc3[nH]cc(C(CF)c4c(Cl)ccc(F)c4Cl)c3c2)cn1` (stereo not drawn) [Example 1, 3-[1-(2,6-Dichloro-3-fluorophenyl)-2-fluoroethyl]-5-(1-methyl-1H-pyrazol-4-yl)-1H-pyrrolo[2,3-b]pyridine], the IC50 – broadly, the concentration that gives 50% inhibition – with MKN45 cells is 100 to 1000 nM.

In the case of `COc1ccc(F)c(Cl)c1[C@@H](CF)c1c[nH]c2ncc(-c3cnn([C@H]4CC[C@H](O)CC4)c3)cc12` [Example 3, trans-4-(4-{3-[(1S)-1-(2-chloro-3-fluoro-6-methoxyphenyl)-2-fluoroethyl]-1H-pyrrolo[2,3-b]pyridin-5-yl}-1H-pyrazol-1-yl)cyclohexanol], the IC50 on c-MET was at most 30 nM; in the experiment with MKN45 cells, 100 to 1000 nM.

Turning to `O[C@H]1CC[C@H](n2cc(-c3cnc4[nH]cc([C@@H](CF)c5c(OC(F)F)ccc(F)c5Cl)c4c3)cn2)CC1` [Example 4, trans-4-[4-(3-{(1R)-1-[2-Chloro-6-(difluoromethoxy)-3-fluorophenyl]-2-fluoroethyl}-1H-pyrrolo[2,3-b]pyridin-5-yl)-1H-pyrazol-1-yl]cyclohexanol], the IC50 was 100 to 1000 nM on c-MET and at most 30 nM in the experiment with MKN45 cells.

Take `O[C@H]1CC[C@H](n2cc(-c3cnc4[nH]cc([C@H](CF)c5c(OC(F)F)ccc(F)c5Cl)c4c3)cn2)CC1` [Example 5, trans-4-[4-(3-{(1S)-1-[2-Chloro-6-(difluoromethoxy)-3-fluorophenyl]-2-fluoroethyl}-1H-pyrrolo[2,3-b]pyridin-5-yl)-1H-pyrazol-1-yl]cyclohexanol]: the IC50 on c-MET was at most 30 nM.
